# Assay results: article PMC8165160, “Substrate Specificities and Inhibition Pattern of the Solute Carrier Family 10 Members NTCP, ASBT and SOAT” (Frontiers in Molecular Biosciences, 2021)
# Counter-ions that a name gives are not always drawn.
# Legend:
# NTCP [1] = target: T1, NTCP (Homo sapiens, UniProt Q14973); assay: Substrate screening: sodium-dependent uptake of radiolabeled compounds in NTCP-HEK293 cells; format: cell-based; set-up: The full-length open reading frames of NTCP, ASBT, and SOAT were cloned; expressed in transfected cells; host or cells: Flp-In T-REX HEK293 (NTCP-HEK293), tetracycline-induced; settings: NTCP-HEK293, vs sodium-free control
# T1 sequence (Q14973 1-349): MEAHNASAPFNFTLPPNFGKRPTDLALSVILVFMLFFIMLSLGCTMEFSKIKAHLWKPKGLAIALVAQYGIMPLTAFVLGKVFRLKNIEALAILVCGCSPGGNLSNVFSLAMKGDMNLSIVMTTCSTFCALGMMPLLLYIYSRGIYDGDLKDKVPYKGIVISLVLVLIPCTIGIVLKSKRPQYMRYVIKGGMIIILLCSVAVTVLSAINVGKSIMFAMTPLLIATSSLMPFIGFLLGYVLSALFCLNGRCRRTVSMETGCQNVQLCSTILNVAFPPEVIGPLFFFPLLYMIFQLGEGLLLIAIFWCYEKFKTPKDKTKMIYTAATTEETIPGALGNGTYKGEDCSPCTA
# Method: Stably SLC10 transporter transfected NTCP-HEK293, ASBT-HEK293, SOAT-HEK293 cells and the HEK293-FlpIn maternal cell line were seeded on 24-well plates (if not stated otherwise for individual assays). Well plates were coated with poly-D-lysine prior to seeding of 125,000 cells per well. Cells were grown with 1 ml of standard medium per well with or without tetracycline ([…]) for 72 h to induce carrier expression before respective assays were started. HEK293-FlpIn cells were cultivated with standard medium and served as control.
# (§1) Uptake experiments were initiated by replacing the preincubation buffer by 500 μL transport buffer containing the radiolabeled test compound and were performed at 37°C. Transport was terminated by removing the transport buffer and washing five-times with ice-cold PBS. Cell monolayers were lysed in 1 N NaOH with 0.1% SDS and the cell-associated radioactivity was determined by liquid scintillation counting.
# FIGURE 1 Comparative substrate screening for bile acids and sulfated steroids in NTCP-, ASBT-, and SOAT-HEK293 cells. Transport assays were performed with the indicated substrates in NTCP-HEK293, ABST-HEK293, SOAT-HEK293, and HEK293-FlpIn cells. Cells were washed and equilibrated with Na^+-containing transport buffer (filled bars) or with Na^+-free transport buffer (open bars) at 37°C. For uptake, cells were incubated with radiolabeled steroid compounds at a final concentration of 200 nM in Na^+-containing or Na^+-free transport buffer for 10 min. Radiolabeled bile acids were used at 1 µM concentrations and transport was analyzed over 30 min. HEK293-FlpIn cells served as additional controls. After the indicated time intervals, cells were washed with ice-cold PBS, lysed and subjected to liquid scintillation counting. […] 3-OH, trihydroxylated BAs; 2-OH, dihydroxylated BAs; 1-OH, monohydroxylated BAs.
# NTCP [2] = target: T1, NTCP; assay: Transport kinetics (concentration-dependent uptake) in NTCP-HEK293 cells; format: cell-based; set-up: The full-length open reading frames of NTCP, ASBT, and SOAT were cloned; expressed in transfected cells; host or cells: Flp-In T-REX HEK293 (NTCP-HEK293), tetracycline-induced; settings: uptake via NTCP, 1 min, 37°C
# Method: as §1
# FIGURE 2 NTCP, ASBT, and SOAT transport kinetics. Concentration-dependent uptake was analyzed in NTCP-HEK293, ASBT-HEK293, and SOAT-HEK293 cells for the indicated substrates at increasing substrate concentrations. Stably transfected HEK293 cells were pretreated with 1 μg/ml tetracycline to induce carrier expression. HEK293-FlpIn cells were used as control. Uptake was analyzed for 1 min at 37°C. Afterward, the medium was removed and each cell monolayer was washed and processed to determine the protein content and cell-associated radioactivity. Specific uptake was calculated by subtracting non-specific uptake of the HEK293-FlpIn control cells (open squares) from uptake into carrier-overexpressing HEK293 cells (filled squares) and is shown by broken lines. The values represent means ± SD of duplicate experiments, each with triplicate determinations (n = 6).
# [3] = radiolabeled bile acids 1 µM, 30 min
SMILES,"Transport activity grading NTCP (mean uptake) (NTCP [1]; radiolabeled steroid compounds 200 nM, 10 min)",Apparent K m (NTCP [2]) [µM],V max (NTCP [2]) [pmol/mg protein/min],Transport activity grading NTCP (mean uptake) (NTCP [1]; [3])
"C[C@]12CC[C@H](OS(=O)(=O)O)CC1=CC[C@@H]1[C@@H]2CC[C@]2(C)C(=O)CC[C@@H]12 [DHEAS, Dehydroepiandrosterone sulfate]",+ (Mean uptake “+” for values below 10),56.1 ± 8.0,2198 ± 101.7,–
C[C@H](CCC(=O)NCCS(=O)(=O)O)[C@H]1CC[C@H]2[C@@H]3[C@H](O)C[C@@H]4C[C@H](O)CC[C@]4(C)[C@H]3C[C@H](O)[C@]12C [Taurocholic acid],–,13.1 ± 0.8,2395 ± 59,+++ (“+++” for values above 1000 pmol/mg protein/30 min)
C[C@H](CCC(=O)NCCS(=O)(=O)O)[C@H]1CC[C@H]2[C@@H]3CC[C@@H]4C[C@H](O)CC[C@]4(C)[C@H]3CC[C@]12C [Taurolithocholic acid],–,18.4 ± 2.3,5915 ± 189,+++ (“+++” for values above 1000 pmol/mg protein/30 min)
